US20120189706A1, “Macrocystis Pyrifera Derived Health and Wellness Products and Methods of Using the Same” (Knocean Sciences, Inc., priority 2009, published 2012)
pIC50: −log10 of the molar value. ≈ marks a conversion by molar mass, not a printed value.

How the values were obtained:
HIV-1 strain IIIB = assay: HIV-1 Cytoprotection assay; type: cell-based
HSV-1 strain HF = assay: HSV Cytoprotection assay; type: cell-based
Protocol: The HSV Cytoprotection assay uses Vero cells and HSV-1 strain HF or HSV-2 strain MS. […] Each assay includes acyclovir (ACV) as a positive control. […] The standard viruses used for this assay are HSV-1 strain HF and HSV-2 strain MS (other viruses available upon request). […] For each assay, a pre-titered aliquot of virus is removed from the freezer (−80° C.) and allowed to thaw slowly to room temperature in a biological safety cabinet. The virus is resuspended and diluted into tissue culture medium such that the amount of virus added to each well is the amount determined to give between 85 to 95% cell killing at 5 days post-infection.

[1] = Compound cytotoxicity in HSV Cytoprotection assay (MTS); type: cell-based; details: African green monkey (Cercopithecus aethiops), Vero cells (uninfected, cells plus compound only), read-out: TC50
Rhinovirus strain 1B = assay: Rhinovirus Cytoprotection assay in MRC-5 cells; type: cell-based
Protocol: (§1) The Rhinovirus Cytoprotection assay uses MRC-5 cells and Rhinovirus strains 1B, 14, or 26. […] Each assay includes enviroxime (ENV) as a positive control. […] The viruses used for this assay are Rhinovirus strains 1B, 14, or 26. […] For each assay, a pre-titered aliquot of virus is removed from the freezer (−80° C.) and allowed to thaw slowly to room temperature in a biological safety cabinet. The virus is resuspended and diluted into tissue culture medium such that the amount of virus added to each well is the amount determined to give between 85 to 95% cell killing at 6-7 days post-infection.

MRC-5 cells = assay: Compound cytotoxicity in Rhinovirus Cytoprotection assay (MTS); type: cell-based, Human; details: 7 days
Source text: The Rhinovirus Cytoprotection assay uses MRC-5 cells and Rhinovirus strains 1B, 14, or 26. […] Each assay includes enviroxime (ENV) as a positive control.

[2] = test system: Influenza A strain A/Victoria/3/75 (H3N2); assay: Influenza A Cytoprotection assay; type: cell-based; details: Influenza A virus, H3N2, 168 h, MDCK cells, 7 days
RSV strain Long = assay: Respiratory Syncytial Virus (RSV) Cytoprotection assay; type: cell-based; details: human respiratory syncytial virus, 168 h, A549 cells, 7 days
Protocol: as §1, with “Respiratory Syncytial Virus (RSV)” for “Rhinovirus”, “A549” for “MRC-5”, “RSV strain Long.” for “Rhinovirus strains 1B, 14, or 26.”, “ribavirin (RBV)” for “enviroxime (ENV)”, “virus” for “viruses”, “is RSV strain Long.” for “are Rhinovirus strains 1B, 14, or 26.”

Coxsackie A strain A7 = assay: Coxsackie A virus Cytoprotection assay; type: cell-based; details: MRC5, 168 h, MRC-5 cells, 7 days
Protocol: The Coxsackie A virus Cytoprotection assay uses MRC-5 cells and Coxsackie A strains A7 or A21. […] Each assay includes ribavirin (RBV) as a positive control. […] The viruses used for this assay are Coxsackie A strains A7 or A21. […] For each assay, a pre-titered aliquot of virus is removed from the freezer (−80° C.) and allowed to thaw slowly to room temperature in a biological safety cabinet. The virus is resuspended and diluted into tissue culture medium such that the amount of virus added to each well is the amount determined to give between 85 to 95% cell killing at 7 days post-infection.

Vero E6 cells = assay: Compound cytotoxicity in Dengue Virus Cytoprotection assay (MTS); details: 7 days

**Q.** With Cc1cn([C@H]2C[C@H](N=[N+]=[N-])[C@@H](CO)O2)c(=O)[nH]c1=O [AZT] as the compound, how does the pIC50 (HIV-1 strain IIIB; HIV-1 Strain IIIB, CEM-SS cells, 6 days) read?
**A.** 6.76

**Q.** And the “Antiviral Index” value (HIV-1 strain IIIB; TC50/IC50, HIV-1)?
**A.** >5.83

**Q.** And the CC50 (CEM-SS cells)?
**A.** > 1 µM

**Q.** With Nc1nc2c(ncn2COCCO)c(=O)[nH]1 [Acyclovir, acyclovir] as the compound, how does the pIC50 (HSV-1 strain HF; Human alphaherpesvirus 1, 120 h, HSV-1 Strain HF, Vero cells, 5 days) read?
**A.** 5.16

**Q.** What about the “Antiviral Index” value (HSV-1 strain HF; TC50/IC50, HSV-1) of the same compound?
**A.** >14.5

**Q.** What about the CC50 at 5 days [1] of the same compound?
**A.** > 100 µM

**Q.** For CC(C)S(=O)(=O)n1c(N)nc2ccc(/C(=N/O)c3ccccc3)cc21 [Enviroxime, enviroxime], which IC50 (Rhinovirus strain 1B; Enterovirus, MRC5, 168 h, Rhinovirus Strain 1B, MRC-5 cells, 7 days) is on record?
**A.** 0.485 µg/mL (≈ 1.35 µM)

**Q.** What about the “Antiviral Index” value (Rhinovirus strain 1B; TC50/IC50, Rhinovirus) of the same compound?
**A.** >20.6

**Q.** What about the TC50 (MRC-5 cells) of the same compound?
**A.** >10 µg/mL

**Q.** What does the source list for NC(=O)c1ncn([C@@H]2O[C@H](CO)[C@@H](O)[C@H]2O)n1 [Ribavirin, ribavirin]?
**A.** IC50 [2]: 4.45 µg/mL (≈ 18.2 µM); IC50 (RSV strain Long): 12.2 µg/mL (≈ 50 µM); IC50 (Coxsackie A strain A7): 7.04 µg/mL (≈ 28.8 µM); TC50 (Vero E6 cells): >200 µg/mL
